Laboratory results from patent publication US6433165B1, “Chemokine receptor antagonists and methods of use therefor” (Millennium Pharmaceuticals, Inc., priority 1998, dated 2002).
pIC50: −log10 of the molar value. Where two headings read alike, the source gives them in different places.

Molecular target: T1, RANTES / MIP-1α binding to THP-1 cell membranes (Homo sapiens, UniProt P32246)
T1 sequence (P32246 1-355): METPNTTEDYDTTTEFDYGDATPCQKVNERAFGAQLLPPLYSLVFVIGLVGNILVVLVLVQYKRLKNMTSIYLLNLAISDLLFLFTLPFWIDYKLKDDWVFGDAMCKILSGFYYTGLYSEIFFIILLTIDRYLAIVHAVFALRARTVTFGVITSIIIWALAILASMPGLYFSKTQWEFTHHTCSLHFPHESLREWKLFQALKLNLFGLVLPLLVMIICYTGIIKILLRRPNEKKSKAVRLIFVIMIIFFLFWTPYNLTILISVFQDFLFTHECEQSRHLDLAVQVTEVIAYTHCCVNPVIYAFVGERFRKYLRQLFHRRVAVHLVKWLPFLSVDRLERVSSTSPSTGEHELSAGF
Assay: Receptor binding assay, 125I-RANTES or 125I-MIP-1α binding to THP-1 cell membranes
Procedure: Membranes were prepared from THP-1 cells (ATCC #TIB202). Cells were harvested by centrifugation, washed twice with PBS (phosphate-buffered saline), and the cell pellets were frozen at −70 to −85° C. […] This procedure results in cell lysis. The suspension was mixed well to resuspend all of the frozen cell pellet. Nuclei and cell debris were removed by centrifugation of 400×g for 10 minutes at 4° C. The supernatant was transferred to a fresh tube and the membrane fragments were collected by centrifugation at 25,000×g for 30 minutes at 4° C. The supernatant was aspirated and the pellet was resuspended in freezing buffer consisting of 10 mM HEPES pH 7.5, 300 mM sucrose, 1 μg/ml each aprotinin, leupeptin, and chymostatin, and 10 μg/ml PMSF (approximately 0.1 ml per each 10^8 cells). All clumps were resolved using a minihomogenizer, and the total protein concentration was determined using a protein assay kit (Bio-Rad, Hercules, Calif., cat #500-0002). The membrane solution was then aliquoted and frozen at −70 to −85° C. until needed. Binding Assays utilized the membranes described above. […] The binding reactions were terminated by harvesting the membranes by rapid filtration through glass fiber filters (GF/B or GF/C, Packard) which were presoaked in 0.3% polyethyleneimine. The filters were rinsed with approximately 600 μl of binding buffer containing 0.5 M NaCl, dried, and the amount of bound radioactivity was determined by scintillation counting in a Topcount beta-plate counter.

[1] = 125I-RANTES or 125I-MIP-1α as ligand, THP-1 cell membranes, 60 min at room temperature, read-out: IC50 (inhibitor concentration required for 50% inhibition of specific binding)

Row | Structure (SMILES) | pIC50 [1] | other results
1 | N#CC1(CCCN2CCC(O)(c3ccc(Cl)cc3)CC2)c2ccccc2C[S+]([O-])c2ccccc21 (single isomer, unassigned) [Example 14, 4-(4-Chlorophenyl)-1-[3-(11-cyano-6,11-dihydro-5-oxodibenzo[b,e]thiepin-11-yl)propyl]piperidin-4-ol] |  | pIC50: > 6.00
2 | N#CC1(CCCN2CCC(O)(c3ccc(Cl)cc3)CC2)c2ccccc2C[S+]([O-])c2ccccc21 (single isomer, unassigned) [Example 15, 4-(4-Chlorophenyl)-1-[3-(11-cyano-6,11-dihydro-5-oxodibenzo[b,e]thiepin-11-yl)propyl]piperidin-4-ol] |  | pIC50 (read-out: IC50 (inhibitor concentration required for 50% inhibition of specific binding), 125I-RANTES or 125I-MIP-1α as ligand, THP-1 cell membranes, 60 min at room temperature): > 6.00
3 | N#CC1(CCCN2CCC(O)(c3ccc(Cl)cc3)CC2)c2ccccc2C=Cc2ccccc21 [Example 1, 4-(4-Chlorophenyl)1-[3-(5-cyano-5H-dibenzo[a,d]cycloheptene-5-yl)propyl]piperidin-4-ol] | > 6.00 | 
4 | N#CC1(CCCN2CCC(O)(c3ccc(Cl)cc3)CC2)c2ccccc2CCc2ccccc21 [Example 2, 4-(4-Chlorophenyl)-1-[3-(5-cyano-10,11-dihydro-5H-dibenzo[a,d]cycloheptene-5-yl)propyl]piperidin-4-ol] |  | pIC50: > 6.00
5 | N#CC1(CCCN2CCC(O)(c3ccc(Cl)cc3)CC2)c2ccccc2COc2ccccc21 (centres unmarked) [Example 3, 4-(4-Chlorophenyl)-1-[3-(11-cyano-6,11-dihydrodibenz[b,e]oxepin-11-yl)propyl]piperidin-4-ol] | > 6.00 | 
6 | N#CC1(CCCN2CCC(O)(c3ccc(F)cc3)CC2)c2ccccc2COc2ccccc21 (centres unmarked) [Example 4, 1-[3-(11-Cyano-6,11-dihydrodibenz[b,e]oxepin-11-yl)propyl]-4-(4-fluorophenyl)piperidin-4-ol] | > 6.00 | 
7 | N#CC1(CCCN2CCC(O)(c3ccc(Cl)cc3)CC2)c2ccccc2COc2ccc(F)cc21 (centres unmarked) [Example 5, 4-(4-Chlorophenyl)-1-[3-(11-cyano-6,11-dihydro-2-fluorodibenz[b,e]oxepin-11-yl)propyl]piperidin-4-ol] | > 6.00 | 
8 | N#CC1(CCCN2CCC(O)(c3ccc(Cl)cc3)CC2)c2ccccc2COc2ccc(Br)cc21 (centres unmarked) [Example 6, 1-[3-(2-Bromo-11-cyano-6,11-dihydrodibenz[b,e]oxepin-11-yl)propyl]-4-(4-chlorophenyl)piperidin-4-ol] | > 6.00 | 
9 | Cc1ccc2c(c1)C(C#N)(CCCN1CCC(O)(c3ccc(Cl)cc3)CC1)c1ccccc1CO2 (centres unmarked) [Example 7, 4-(4-Chlorophenyl)-1-[3-(11-cyano-6,11-dihydro-2-methyldibenz[b,e]oxepin-11-yl)propyl]piperidin-4-ol] | > 6.00 | 
10 | N#CC1(CCCN2CCC(O)(c3ccc(Cl)cc3)CC2)c2ccccc2CSc2ccccc21 (centres unmarked) [Example 10, 4-(4-Chlorophenyl)-1-[3-(11-cyano-6,11-dihydrodibenzo[b,e]thiepin-11-yl)propyl]piperidin-4-ol] |  | pIC50: > 6.00
11 | N#CC1(CCCN2CCC(O)(c3ccccc3)CC2)c2ccccc2CSc2ccccc21 (centres unmarked) [Example 11, 1-[3-(11-Cyano-6,11-dihydrodibenzo[b,e]thiepin-11-yl)propyl]-4-phenylpiperidin-4-ol] | > 4.00 | 
12 | N#CC1(CCCN2CCC(O)(c3ccc(Br)cc3)CC2)c2ccccc2CSc2ccccc21 (centres unmarked) [Example 12, 4-(4-Bromophenyl)-1-[3-(11-cyano-6,11-dihydrodibenzo[b,e]thiepin-11-yl)propyl]piperidin-4-ol] | > 6.00 | 
13 | N#CC1(CCCN2CCC(O)(c3ccc(Cl)cc3)CC2)c2ccccc2CSc2ccc(Br)cc21 (centres unmarked) [Example 13, 1-[3-(2-Bromo-11-cyano-6,11-dihydrodibenzo[b,e]thiepin-11-yl)propyl]-4-(4-chlorophenyl)piperidin-4-ol] | > 6.00 | 
14 | N#CC1(CCCN2CCC(O)(c3ccc(Cl)cc3)CC2)c2ccccc2CS(=O)(=O)c2ccccc21 (centres unmarked) [Example 16, 4-(4-Chlorophenyl)-1-[3-(11-cyano-6,11-dihydro-5,5-dioxodibenzo[b,e]thiepin-11-yl)propyl]piperidin-4-ol] | > 6.00 | 
15 | OC1(c2ccc(Cl)cc2)CCN(CCCC2c3ccccc3CSc3ccccc32)CC1 (centres unmarked) [Example 17, 4-(4-Chlorophenyl)-1-[3-(6,11-dihydrodibenzo[b,e]thiepin-11-yl)propyl]piperidin-4-ol] | > 6.00 | 
16 | OC1(c2ccc(Cl)cc2)CCN(CCCC2c3ccccc3CCc3ccccc32)CC1 [Example 18, 4-(4-Chlorophenyl)-1-[3-(10,11-dihydro-5H-dibenzo[a,d]cycloheptene-5-yl)propyl]piperidin-4-ol] | > 6.00 | 
17 | OC1(c2ccc(Cl)cc2)CCN(CCCC2c3ccccc3COc3ccccc32)CC1 (centres unmarked) [Example 19, 4-(4-Chlorophenyl)-1-[3-(6,11-dihydrodibenz[b,e]oxepin-11-yl)propyl]piperidin-4-ol] | > 6.00 | 
18 | O=C(NCC1(CCCN2CCC(O)(c3ccc(Cl)cc3)CC2)c2ccccc2CSc2ccccc21)Oc1ccccc1 (centres unmarked) [Example 22, Phenyl N-[11-[3-(4-(4-chlorophenyl)-4-hydroxypiperidino)propyl]-6,11-dihydrodibenzo[b,e]thiepin-11-yl)methyl Carbamate] |  | pIC50: > 6.00
19 | O=C(NCCCO)NCC1(CCCN2CCC(O)(c3ccc(Cl)cc3)CC2)c2ccccc2CSc2ccccc21 (centres unmarked) [Example 23, 1-[11-[3-(4-(4-chlorophenyl)-4-hydroxypiperidino)propyl]-6,11-dihydrodibenzo[b,e]thiepin-11-yl]methyl-8-(3-hydroxypropyl)urea] | > 5.00 | 
20 | O=C(CCN1CCC(O)(c2ccc(Cl)cc2)CC1)C1c2ccccc2CCc2ccccc21 [Example 24, 4-(4-Chlorophenyl)-1-[3-(10,11-dihydro-5H-dibenzo[a,d]cycloheptene-5-yl)-3-propioyl]piperidin-4-ol] |  | pIC50: > 6.00
